The text below walks through data of ChEMBL document CHEMBL1145554, “First CoMFA characterization of vesamicol analogs as ligands for the vesicular acetylcholine transporter” (J Med Chem, 2008).

The structures appear in SMILES notation.

The assay in a line: Displacement of [3H]vesamicol from VAChT receptor in torpedo electrical organ synaptic vesicle. For orientation: Loss of bound radioactivity is the signal in a displacement assay; it reports binding, not function.
In the case of `O[C@@H]1C[C@H]2CCCC[C@@H]2C[C@H]1N1CCC(c2ccccc2)CC1`, the affinity, expressed as Ki, was 0.009 nM.

Regarding `O=C(CN1C2CCC1CC(c1ccccc1)C2)c1ccc(F)cc1` (stereo not drawn), affinity was put at a Ki of 3400 nM.

The compound `O[C@@H]1CCCC[C@H]1N1CCC(c2ccccc2)CC1` (relative stereo) [VESAMICOL] had a Ki of 7.6 nM.

In general, Ki refers to the equilibrium dissociation constant of an inhibitor or competing ligand from its target. Low values mean higher affinity, high ones lower affinity.
